This is an account of results in ChEMBL document CHEMBL3351996, “Carbonic anhydrase inhibitory activity of sulfonamides and carboxylic acids incorporating cyclic imide scaffolds” (Bioorg Med Chem Lett, 2014).

Assay [1] deals with Carbonic anhydrase 1 (Homo sapiens, UniProt P00915). Kind of assay: Inhibition of human carbonic anhydrase 1 by stopped-flow CO2 hydrase assay.
Assay [2] addresses Carbonic anhydrase 2 (Homo sapiens, UniProt P00918). Kind of assay: Inhibition of human carbonic anhydrase 2 by stopped-flow CO2 hydrase assay.
Assay [3] deals with Carbonic anhydrase 9 (Homo sapiens, UniProt Q16790).
Description: Inhibition of human carbonic anhydrase 9 by stopped-flow CO2 hydrase assay
Assay [4] concerns the target Carbonic anhydrase 12 (Homo sapiens, UniProt O43570).
Description: Inhibition of human carbonic anhydrase 12 by stopped-flow CO2 hydrase assay

SMILES strings stand for the structures.

Carbonic anhydrase 12, sequence (O43570 whole entry): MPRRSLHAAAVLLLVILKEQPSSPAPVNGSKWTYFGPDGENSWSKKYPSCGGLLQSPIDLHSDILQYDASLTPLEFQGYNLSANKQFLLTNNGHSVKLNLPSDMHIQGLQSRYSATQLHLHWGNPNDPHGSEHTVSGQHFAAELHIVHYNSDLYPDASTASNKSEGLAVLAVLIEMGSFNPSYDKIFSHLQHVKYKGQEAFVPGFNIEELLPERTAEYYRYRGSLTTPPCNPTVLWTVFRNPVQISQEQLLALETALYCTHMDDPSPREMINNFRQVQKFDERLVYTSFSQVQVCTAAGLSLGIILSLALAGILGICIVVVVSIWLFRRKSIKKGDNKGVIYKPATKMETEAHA
Carbonic anhydrase 1, sequence (P00915 whole entry): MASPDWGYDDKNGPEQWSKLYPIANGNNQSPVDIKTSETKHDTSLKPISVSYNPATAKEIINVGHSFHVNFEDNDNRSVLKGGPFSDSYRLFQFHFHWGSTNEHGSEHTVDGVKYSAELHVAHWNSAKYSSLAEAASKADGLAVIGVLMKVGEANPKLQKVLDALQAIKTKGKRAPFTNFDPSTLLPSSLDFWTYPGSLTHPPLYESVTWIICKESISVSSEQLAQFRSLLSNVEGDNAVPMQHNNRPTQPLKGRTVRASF

For the compound `O=C(O)c1ccc(N2C(=O)c3cccc4cccc(c34)C2=O)cc1`, the Ki – broadly, a dissociation constant, usually derived from enzyme kinetics or from competition with a known ligand – in assay [1] was over 1000 nM; in assay [2], over 1000 nM; in assay [3], 5.9 nM; in assay [4] it was 1.2 nM. Consider `O=C(O)c1ccc(N2C(=O)c3c(Cl)c(Cl)c(Cl)c(Cl)c3C2=O)cc1`, for which the inhibition constant (Ki) in assay [2] is over 1000 nM; in assay [3] it was 4.4 nM. Turning to `O=C(O)c1ccc(N2C(=O)c3ccc([N+](=O)[O-])cc3C2=O)cc1`, the inhibition constant Ki in assay [1] and in assay [2] was over 1000 nM throughout.

`NS(=O)(=O)c1ccc(CN2C(=O)c3nccnc3C2=O)cc1` came in with a Ki in assay [3] of 5.9 nM. Take `NS(=O)(=O)c1ccc(N2C(=O)c3nccnc3C2=O)cc1`: the Ki in assay [3] came out at 2.9 nM.

Turning to `O=C(O)c1ccc(N2C(=O)c3nccnc3C2=O)cc1`, the Ki in assay [1] is over 1000 nM; in assay [2], over 1000 nM; in assay [3] it was 22.1 nM. `NS(=O)(=O)c1ccc(CN2C(=O)c3cccc4cccc(c34)C2=O)cc1` showed a Ki in assay [3] of 4.6 nM. Same read-out and setting: then `NS(=O)(=O)c1ccc(N2C(=O)c3cccc4cccc(c34)C2=O)cc1`, with 4.9 nM; and `NS(=O)(=O)c1ccc(CN2C(=O)CCC2=O)cc1`, with 29.3 nM; and `NS(=O)(=O)c1ccc(N2C(=O)CCC2=O)cc1`, with 10.8 nM. For `O=C(O)c1ccc(N2C(=O)CCC2=O)cc1`, the results for the inhibitory constant (Ki) in assay [2] and in assay [3] were over 1000 nM and 506 nM, respectively. Consider `NS(=O)(=O)c1ccc(CN2C(=O)[C@H]3CC=CC[C@H]3C2=O)cc1`, for which, in assay [3], the inhibition constant (Ki) turned out to be 2.6 nM.

With `NS(=O)(=O)c1ccc(N2C(=O)[C@H]3CC=CC[C@H]3C2=O)cc1`, the Ki in assay [1] was determined as 31.2 nM; in assay [2], 4.8 nM; in assay [3], 4.4 nM; in assay [4] it was 0.57 nM. In assay [3], `NS(=O)(=O)c1ccc(CN2C(=O)c3ccccc3C2=O)cc1` came in with a Ki of 4.1 nM.

`Cc1ccc2c(c1)C(=O)N(Cc1ccc(S(N)(=O)=O)cc1)C2=O`: the Ki in assay [1] amounted to 21.8 nM; in assay [2] it was 26.2 nM; in assay [3], 5.9 nM; in assay [4], 0.85 nM.

In assay [3], `Cc1ccc2c(c1)C(=O)N(c1ccc(S(N)(=O)=O)cc1)C2=O` had a Ki of 3.3 nM. With `Cc1ccc2c(c1)C(=O)N(c1ccc(C(=O)O)cc1)C2=O`, the inhibition constant Ki in assay [2] is over 1000 nM; in assay [3], 350 nM. As to `CC(C)(C)c1ccc2c(c1)C(=O)N(c1ccc(S(N)(=O)=O)cc1)C2=O`, the affinity in assay [3] corresponds to a Ki of 2.4 nM. With `CC(C)(C)c1ccc2c(c1)C(=O)N(c1ccc(C(=O)O)cc1)C2=O`, the Ki is over 1000 nM in assay [2] and 428 nM in assay [3]. Taken in the same sequence, the figures for `O=C(O)c1ccc(N2C(=O)c3cc(Cl)c(Cl)cc3C2=O)cc1` were over 1000 nM and 41.6 nM. Regarding `NS(=O)(=O)c1ccc(CN2C(=O)c3c(Cl)c(Cl)c(Cl)c(Cl)c3C2=O)cc1`, in assay [3], the affinity corresponds to a Ki of 3.1 nM. Consider `O=C(O)c1ccc(N2C(=O)c3ccccc3C2=O)cc1`, for which the inhibition constant (Ki) in assay [1] is 30.2 nM; in assay [2] it was 166 nM; in assay [3], 4.9 nM; in assay [4], 18.7 nM. With `NS(=O)(=O)c1ccc(N2C(=O)c3ccccc3C2=O)cc1`, the inhibition constant Ki in assay [3] came to 3.8 nM.
